From patent US20080140036A1, “Antimicrobial Composition” (priority 2004, published 2008)

Experiments:
[1] = tested on: EMRSA m97 271 088 phage group 6; test: ZOI of triclosan vapours (vapour phase)
[2] = tested on: EMRSA g96 136 210 phage group 17; test: ZOI of triclosan vapours (vapour phase)
[3] = tested on: all strains of staphylococci; test: MIC of triclosan (direct contact), all strains; type: cell-based
[4] = tested on: MRSA 15; test: ZOI of triclosan vapours (vapour phase)
[5] = tested on: MRSA 26; test: ZOI of triclosan vapours (vapour phase)
[6] = tested on: S. epidermidis NCTC 11047; test: ZOI of triclosan vapours (vapour phase); type: cell-based
[7] = tested on: EMRSA m97 271 032 phage group 10; test: MIC of triclosan (direct contact)
[8] = tested on: EMRSA g96 138 744 phage group 16; test: ZOI of triclosan vapours (vapour phase)
[9] = tested on: EMRSA m97 271 064 phage group 14; test: ZOI of triclosan vapours (vapour phase)
[10] = tested on: MRSA 12; test: ZOI of triclosan vapours (vapour phase)
[11] = tested on: EMRSA m97 271 032 phage group 10; test: ZOI of triclosan vapours (vapour phase)
[12] = tested on: MSSA (4); test: ZOI of triclosan vapours (vapour phase); type: cell-based, S. aureus

In the case of `Oc1cc(Cl)ccc1Oc1ccc(Cl)cc1Cl` [triclosan], the “ZOI Average” value ([1]; average) was 52 mm, the “ZOI 1” value ([1]; replicate 1) was 52 mm and the “ZOI 2” value ([1]; replicate 2) was 52 mm. For the same molecule, the “ZOI Average” value ([2]; average) was 47 mm, the “ZOI 1” value ([2]; replicate 1) was 47 mm and the “ZOI 2” value ([2]; replicate 2) was 47 mm. The “concentration able to inhibit all strains of staphylococci” value [3] was 2 µg/mL, the “ZOI Average” value ([4]; average) was 50 mm and the “ZOI 1” value ([4]; replicate 1) was 50 mm. For the same molecule, the “ZOI 2” value ([4]; replicate 2) was 50 mm, the “ZOI Average” value ([5]; average) was 40 mm and the “ZOI 1” value ([5]; replicate 1) was 40 mm. The “ZOI 2” value ([5]; replicate 2) was 40 mm, the “ZOI Average” value ([6]; average) was 50.5 mm and the “ZOI 1” value ([6]; replicate 1) was 50 mm. For the same molecule, the “ZOI 2” value ([6]; replicate 2) was 51 mm, the MIC [7] was 0.5 Mg ml^−1− and the “ZOI Average” value ([8]; average) was 50 mm. The “ZOI 1” value ([8]; replicate 1) was 50 mm, the “ZOI 2” value ([8]; replicate 2) was 50 mm and the “ZOI Average” value ([9]; average) was 35 mm. The “ZOI 1” value ([9]; replicate 1) was 35 mm, the “ZOI 2” value ([9]; replicate 2) was 35 mm and the “ZOI Average” value ([10]; average) was 44.5 mm. The “ZOI 1” value ([10]; replicate 1) was 45 mm, the “ZOI 2” value ([10]; replicate 2) was 44 mm and the “ZOI Average” value ([11]; average) was 49 mm. For the same molecule, the “ZOI 1” value ([11]; replicate 1) was 49 mm, the “ZOI 2” value ([11]; replicate 2) was 49 mm and the “ZOI Average” value ([12]; average) was 51 mm. For the same molecule, the “ZOI 1” value ([12]; replicate 1) was 50 mm and the “ZOI 2” value ([12]; replicate 2) was 52 mm.
